ChEMBL document CHEMBL5356985, “Development of trisubstituted thiophene-3-arboxamide selenide derivatives as novel EGFR kinase inhibitors with cytotoxic activity” (RSC Med Chem, 2023)
Values after ≈ are worked out from the molar mass of the structure shown.

Experiments:
[1] = system: SK-OV-3; assay: Antiproliferative activity against human SK-OV-3 cells assessed as reduction in cell viability incubated for 24 hrs by MTT assay; assay type: functional, cell-based; conditions: SK-OV-3, 24 h
[2] = system: MCF7; assay: Antiproliferative activity against human MCF7 cells assessed as reduction in cell viability incubated for 24 hrs by MTT assay; assay type: functional, cell-based; conditions: MCF7, 24 h
[3] = Solubility in human plasma at pH 7.2 to 7.8 incubated for 4 hrs by HPLC analysis; assay type: ADME, cell-free
[4] = system: A2780S; assay: Antiproliferative activity against human A2780S cells assessed as reduction in cell viability incubated for 24 hrs by MTT assay; assay type: functional, cell-based
[5] = system: MDA-MB-231; assay: Antiproliferative activity against human MDA-MB-231 cells assessed as reduction in cell viability incubated for 24 hrs by MTT assay; assay type: functional, cell-based; conditions: MDA-MB-231, 24 h
[6] = system: SK-MEL-28; assay: Antiproliferative activity against human SK-MEL-28 cells assessed as cell growth inhibition at 20 uM incubated for 48 hrs by MTT assay; assay type: functional
[7] = system: MCF7; assay: Antiproliferative activity against human MCF7 cells assessed as cell growth inhibition at 20 uM incubated for 48 hrs by MTT assay; assay type: functional
[8] = system: HCT-116; assay: Antiproliferative activity against human HCT-116 cells assessed as cell growth inhibition at 20 uM incubated for 48 hrs by MTT assay; assay type: functional
[9] = system: A549; assay: Antiproliferative activity against human A549 cells assessed as cell growth inhibition at 20 uM incubated for 48 hrs by MTT assay; assay type: functional
[10] = target: T1, Epidermal growth factor receptor (Homo sapiens, UniProt P00533); assay: Inhibition of EGFR (unknown origin)
T1 sequence (P00533 whole entry): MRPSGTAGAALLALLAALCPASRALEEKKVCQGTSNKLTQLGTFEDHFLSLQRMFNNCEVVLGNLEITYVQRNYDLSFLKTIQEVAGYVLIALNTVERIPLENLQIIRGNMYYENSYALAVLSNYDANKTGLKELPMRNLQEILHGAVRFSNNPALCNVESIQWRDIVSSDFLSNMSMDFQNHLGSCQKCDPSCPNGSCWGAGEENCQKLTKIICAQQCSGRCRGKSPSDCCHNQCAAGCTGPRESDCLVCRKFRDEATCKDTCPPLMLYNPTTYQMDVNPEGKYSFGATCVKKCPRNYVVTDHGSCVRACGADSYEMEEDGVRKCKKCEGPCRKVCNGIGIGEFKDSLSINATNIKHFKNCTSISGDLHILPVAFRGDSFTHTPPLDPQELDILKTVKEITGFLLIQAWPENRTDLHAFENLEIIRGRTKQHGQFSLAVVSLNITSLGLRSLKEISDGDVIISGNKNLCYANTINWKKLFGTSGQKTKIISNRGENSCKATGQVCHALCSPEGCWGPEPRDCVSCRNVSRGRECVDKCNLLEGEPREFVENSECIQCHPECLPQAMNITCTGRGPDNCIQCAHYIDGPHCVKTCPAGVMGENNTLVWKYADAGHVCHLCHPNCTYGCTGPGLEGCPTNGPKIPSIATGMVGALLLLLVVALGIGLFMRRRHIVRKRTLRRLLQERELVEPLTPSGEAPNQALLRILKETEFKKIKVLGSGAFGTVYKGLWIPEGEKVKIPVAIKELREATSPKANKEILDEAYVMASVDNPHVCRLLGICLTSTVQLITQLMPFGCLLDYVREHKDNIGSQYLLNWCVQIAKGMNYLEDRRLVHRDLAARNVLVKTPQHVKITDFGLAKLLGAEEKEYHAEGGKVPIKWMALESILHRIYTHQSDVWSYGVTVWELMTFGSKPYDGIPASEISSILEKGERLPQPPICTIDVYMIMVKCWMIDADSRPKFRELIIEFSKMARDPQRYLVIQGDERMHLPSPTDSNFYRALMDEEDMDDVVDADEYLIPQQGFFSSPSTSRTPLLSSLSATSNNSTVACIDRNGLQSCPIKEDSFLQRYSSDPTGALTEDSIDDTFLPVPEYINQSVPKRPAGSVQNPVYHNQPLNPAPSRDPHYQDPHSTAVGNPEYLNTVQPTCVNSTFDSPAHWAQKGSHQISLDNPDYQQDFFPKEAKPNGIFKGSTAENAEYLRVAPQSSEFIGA

[11] = target: Epidermal growth factor receptor (Homo sapiens, UniProt P00533, L858R/T790M); assay: Inhibition of EGFR T790M/L858R mutant (unknown origin)
Chain of Epidermal growth factor receptor (Homo sapiens, UniProt P00533, L858R/T790M) (P00533 25-1210 T790M/L858R limits assumed): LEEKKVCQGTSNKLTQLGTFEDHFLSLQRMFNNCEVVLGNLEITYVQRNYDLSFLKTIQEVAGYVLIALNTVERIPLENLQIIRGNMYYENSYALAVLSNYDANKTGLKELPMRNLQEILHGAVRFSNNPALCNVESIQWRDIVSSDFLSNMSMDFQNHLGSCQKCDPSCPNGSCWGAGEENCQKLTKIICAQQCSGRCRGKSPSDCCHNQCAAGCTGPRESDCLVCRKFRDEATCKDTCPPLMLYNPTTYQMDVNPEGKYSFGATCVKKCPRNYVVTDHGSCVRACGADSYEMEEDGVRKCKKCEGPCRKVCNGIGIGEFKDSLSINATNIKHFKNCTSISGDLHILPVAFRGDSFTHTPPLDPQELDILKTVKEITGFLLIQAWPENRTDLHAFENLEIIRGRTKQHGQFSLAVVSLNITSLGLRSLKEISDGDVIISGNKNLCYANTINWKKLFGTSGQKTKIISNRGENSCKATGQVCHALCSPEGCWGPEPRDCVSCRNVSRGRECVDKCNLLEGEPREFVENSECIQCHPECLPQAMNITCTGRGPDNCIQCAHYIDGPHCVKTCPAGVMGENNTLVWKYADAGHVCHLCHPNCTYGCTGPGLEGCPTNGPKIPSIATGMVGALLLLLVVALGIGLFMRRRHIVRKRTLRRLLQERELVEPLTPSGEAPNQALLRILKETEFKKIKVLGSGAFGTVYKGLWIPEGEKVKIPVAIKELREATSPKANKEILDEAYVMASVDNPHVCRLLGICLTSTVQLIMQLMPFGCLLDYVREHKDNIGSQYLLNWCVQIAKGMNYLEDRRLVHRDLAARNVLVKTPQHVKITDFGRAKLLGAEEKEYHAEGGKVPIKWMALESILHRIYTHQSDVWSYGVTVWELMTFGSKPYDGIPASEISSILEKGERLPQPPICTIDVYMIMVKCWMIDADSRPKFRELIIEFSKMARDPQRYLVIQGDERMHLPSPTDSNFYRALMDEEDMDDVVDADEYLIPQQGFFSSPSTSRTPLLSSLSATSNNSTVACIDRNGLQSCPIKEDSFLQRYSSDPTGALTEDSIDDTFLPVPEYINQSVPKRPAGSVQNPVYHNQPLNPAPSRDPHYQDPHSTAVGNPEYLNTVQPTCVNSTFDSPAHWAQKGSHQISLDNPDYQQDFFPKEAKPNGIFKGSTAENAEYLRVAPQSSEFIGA

[12] = Cytotoxicity against human HaCaT cells assessed as cell growth inhibition incubated for 48 hrs by MTT assay; assay type: toxicity, cell-based
[13] = target: T1, Epidermal growth factor receptor; assay: Inhibition of EGFR (unknown origin) using poly E4Y1 and ATP as substrate incubated for 60 mins by ADP-Glo kinase assay
[14] = system: MCF7; assay: Antiproliferative activity against human MCF7 cells assessed as cell growth inhibition incubated for 48 hrs by MTT assay; assay type: functional, cell-based; conditions: MCF7, 48 h
[15] = system: HCT-116; assay: Antiproliferative activity against human HCT-116 cells assessed as cell growth inhibition incubated for 48 hrs by MTT assay; assay type: functional, cell-based; conditions: HCT-116, 48 h
[16] = system: A549; assay: Antiproliferative activity against human A549 cells assessed as cell growth inhibition incubated for 48 hrs by MTT assay; assay type: functional, cell-based; conditions: A549, 48 h
[17] = system: SK-MEL-28; assay: Antiproliferative activity against human SK-MEL-28 cells assessed as cell growth inhibition incubated for 48 hrs by MTT assay; assay type: functional, cell-based; conditions: SK-MEL-28, 48 h
[18] = Selectivity index, ratio of IC50 for cytotoxicity against human L02 cells to IC50 for antiproliferative activity against human A549 cells; assay type: toxicity, cell-based; conditions: L02 cells and A549 cells, read-out: Ratio IC50
[19] = system: A549; assay: Antiproliferative activity against human A549 cells assessed as reduction in cell viability; assay type: functional, cell-based
[20] = Cytotoxicity against human L02 cells assessed as reduction in cell viability; assay type: toxicity, cell-based

Structure (SMILES): COc1ccc(/C=C/C(=O)c2ccc(OC)c3c2OC(C)(C)C=C3)cc1O
- IC50 [1]: 0.42 µM
- IC50 [2]: 0.42 µM
- solubility at 4 h [3]: 146 µg/mL (≈ 0.398 mM)
- IC50 [4]: 0.42 µM
- IC50 [5]: 0.42 µM

Structure (SMILES): Cc1sc([Se]c2sc(C)c(-c3ccccc3)c2C(=O)NCC(=O)N2CCCC2)c(C(=O)NCC(=O)N2CCCC2)c1-c1ccccc1
- inhibition at 20 µM [6]: < 10%
- inhibition at 20 µM [7]: 89%
- inhibition at 20 µM [8]: 25%
- inhibition at 20 µM [9]: 45%

Structure (SMILES): O=C(N/N=C/c1cnc(N2CCCC2)nc1)Nc1cc2c(Nc3ccc(F)c(Cl)c3)ncnc2cc1O[C@@H]1CCOC1
- IC50 [10]: 0.0063 µM
- IC50 [11]: 0.0084 µM

Structure (SMILES): Cc1sc([Se]c2sc(C)c(-c3cccc(F)c3)c2C(=O)NC(C)C(=O)N2CCCC2)c(C(=O)NC(C)C(=O)N2CCCC2)c1-c1cccc(F)c1 (stereo not drawn)
- IC50 at 48 h [12]: 29.3 µM
- IC50 [13]: 0.835 µM
- inhibition at 20 µM [6]: 62%
- inhibition at 20 µM [7]: 86%
- IC50 [14]: 14.4 µM
- inhibition at 20 µM [8]: 72%
- IC50 [15]: 8.11 µM
- IC50 [16]: 13.2 µM
- inhibition at 20 µM [9]: 77%
- IC50 [17]: 14.3 µM

Structure (SMILES): Cc1sc(Br)c(C(=O)NC(CO)C(=O)N2CCCC2)c1-c1cccc(Br)c1 (stereo not drawn)
- IC50 [14]: 32.7 µM
- IC50 [15]: 24.7 µM
- IC50 [16]: 28.8 µM
- IC50 [17]: 54.6 µM

Structure (SMILES): Cc1sc([Se]c2sc(C)c(-c3cccc(Cl)c3)c2C(=O)NC(CO)C(=O)N2CCCC2)c(C(=O)NC(CO)C(=O)N2CCCC2)c1-c1cccc(Cl)c1 (stereo not drawn)
- IC50 at 48 h [12]: 31.8 µM
- IC50 [13]: 0.727 µM
- inhibition at 20 µM [6]: 66%
- inhibition at 20 µM [7]: 64%
- IC50 [14]: 11.2 µM
- inhibition at 20 µM [8]: 75%
- IC50 [15]: 6.83 µM
- IC50 [16]: 15.7 µM
- inhibition at 20 µM [9]: 86%
- IC50 [17]: 13.8 µM

Structure (SMILES): Cc1sc(Br)c(C(=O)NC(C)C(=O)N2CCCC2)c1-c1cccc(F)c1 (stereo not drawn)
- IC50 [14]: 47.7 µM
- IC50 [15]: 31 µM
- IC50 [16]: 44.6 µM
- IC50 [17]: 49.4 µM

Structure (SMILES): Cc1sc([Se]c2sc(C)c(-c3cccc(Br)c3)c2C(=O)NC(C(=O)N2CCCC2)C(C)C)c(C(=O)NC(C(=O)N2CCCC2)C(C)C)c1-c1cccc(Br)c1 (stereo not drawn)
- inhibition at 20 µM [6]: 34%
- inhibition at 20 µM [7]: 72%
- inhibition at 20 µM [8]: 51%
- inhibition at 20 µM [9]: 44%

Structure (SMILES): Cc1sc([Se]c2sc(C)c(-c3cccc(F)c3)c2C(=O)NCC(=O)N2CCCC2)c(C(=O)NCC(=O)N2CCCC2)c1-c1cccc(F)c1
- IC50 at 48 h [12]: 24.7 µM
- inhibition at 20 µM [6]: 70%
- inhibition at 20 µM [7]: 88%
- IC50 [14]: 13.4 µM
- inhibition at 20 µM [8]: 73%
- IC50 [15]: 9.22 µM
- IC50 [16]: 17.4 µM
- inhibition at 20 µM [9]: 79%
- IC50 [17]: 11.5 µM

Structure (SMILES): Cc1sc(Br)c(C(=O)NC(CO)C(=O)N2CCCC2)c1-c1cccc(Cl)c1 (stereo not drawn)
- IC50 [14]: 36.9 µM
- IC50 [15]: 34.5 µM
- IC50 [16]: 33.9 µM
- IC50 [17]: 57.1 µM

Structure (SMILES): Cc1sc(Br)c(C(=O)NC(C)C(=O)N2CCCC2)c1-c1ccccc1 (stereo not drawn)
- IC50 [14]: 39.2 µM
- IC50 [15]: 37 µM
- IC50 [16]: 40.1 µM
- IC50 [17]: 55 µM

Structure (SMILES): Cc1sc([Se]c2sc(C)c(-c3ccccc3)c2C(=O)NC(C)C(=O)N2CCCC2)c(C(=O)NC(C)C(=O)N2CCCC2)c1-c1ccccc1 (stereo not drawn)
- IC50 at 48 h [12]: 26.4 µM
- inhibition at 20 µM [6]: 72%
- inhibition at 20 µM [7]: 90%
- IC50 [14]: 15.1 µM
- inhibition at 20 µM [8]: 69%
- IC50 [15]: 8.19 µM
- IC50 [16]: 15 µM
- inhibition at 20 µM [9]: 82%
- IC50 [17]: 10.5 µM

Structure (SMILES): c1ccc2c(c1)CCN2c1ncnc2cc3c(cc12)NCN3CCN1CCCC1
- IC50 [10]: 0.032 µM

Structure (SMILES): Cc1sc([Se]c2sc(C)c(-c3cccc(F)c3)c2C(=O)NC(Cc2ccccc2)C(=O)N2CCCC2)c(C(=O)NC(Cc2ccccc2)C(=O)N2CCCC2)c1-c1cccc(F)c1 (stereo not drawn)
- inhibition at 20 µM [6]: < 10%
- inhibition at 20 µM [7]: 3%
- inhibition at 20 µM [8]: 10%
- inhibition at 20 µM [9]: 14%

Structure (SMILES): Cc1sc([Se]c2sc(C)c(-c3cccc(F)c3)c2C(=O)NC(C(=O)N2CCCC2)C(C)C)c(C(=O)NC(C(=O)N2CCCC2)C(C)C)c1-c1cccc(F)c1 (stereo not drawn)
- inhibition at 20 µM [6]: 36%
- inhibition at 20 µM [7]: 58%
- inhibition at 20 µM [8]: 63%
- inhibition at 20 µM [9]: 35%

Structure (SMILES): O=c1[nH]cc(F)c(=O)[nH]1 [FLUOROURACIL]
- IC50 [14]: 15.2 µM
- IC50 [15]: 16.7 µM
- IC50 [16]: 18.6 µM
- IC50 [17]: 10.2 µM

Structure (SMILES): COc1cc(C2c3cc4c(cc3C(OC3OC5COC(C)OC5C(O)C3O)C3COC(=O)C23)OCO4)cc(OC)c1O (stereo not drawn)
- selectivity ratio [18]: 0.5
- IC50 [19]: 9.4 µM
- IC50 [20]: 3.5 µM

Structure (SMILES): Cc1sc([Se]c2sc(C)c(-c3cccc(Cl)c3)c2C(=O)NC(C)C(=O)N2CCCC2)c(C(=O)NC(C)C(=O)N2CCCC2)c1-c1cccc(Cl)c1 (stereo not drawn)
- inhibition at 20 µM [6]: 13%
- inhibition at 20 µM [7]: 90%
- inhibition at 20 µM [8]: 70%
- inhibition at 20 µM [9]: 38%

Structure (SMILES): Cc1sc([Se]c2sc(C)c(-c3cccc(F)c3)c2C(=O)NC(CC(C)C)C(=O)N2CCCC2)c(C(=O)NC(CC(C)C)C(=O)N2CCCC2)c1-c1cccc(F)c1 (stereo not drawn)
- inhibition at 20 µM [6]: 18%
- inhibition at 20 µM [7]: 70%
- inhibition at 20 µM [8]: 57%
- inhibition at 20 µM [9]: 52%

Structure (SMILES): Cc1sc([Se]c2sc(C)c(-c3cccc(Cl)c3)c2C(=O)NC(Cc2ccccc2)C(=O)N2CCCC2)c(C(=O)NC(Cc2ccccc2)C(=O)N2CCCC2)c1-c1cccc(Cl)c1 (stereo not drawn)
- inhibition at 20 µM [6]: 22%
- inhibition at 20 µM [7]: 13%
- inhibition at 20 µM [8]: 15%
- inhibition at 20 µM [9]: 23%

Structure (SMILES): Cc1sc([Se]c2sc(C)c(-c3cccc(Cl)c3)c2C(=O)NC(C(=O)N2CCCC2)C(C)C)c(C(=O)NC(C(=O)N2CCCC2)C(C)C)c1-c1cccc(Cl)c1 (stereo not drawn)
- inhibition at 20 µM [6]: < 10%
- inhibition at 20 µM [7]: 64%
- inhibition at 20 µM [8]: 47%
- inhibition at 20 µM [9]: 36%

Structure (SMILES): COc1ccc(/C=C/C(=O)c2ccc(OC)c3c2OC(C)(C)C=C3)cc1OC(=O)CNC(=O)OC(C)(C)C
- IC50 [1]: 0.12 µM
- IC50 [2]: 0.12 µM
- solubility at 4 h [3]: 2980 µg/mL (≈ 5.69 mM)
- IC50 [4]: 0.12 µM
- IC50 [5]: 0.12 µM

Structure (SMILES): Cc1sc(Br)c(C(=O)NCC(=O)N2CCCC2)c1-c1cccc(F)c1
- IC50 [14]: 43.7 µM
- IC50 [15]: 39 µM
- IC50 [16]: 42.6 µM
- IC50 [17]: 40.1 µM

Structure (SMILES): Cc1sc([Se]c2sc(C)c(-c3cccc(Br)c3)c2C(=O)NC(Cc2ccccc2)C(=O)N2CCCC2)c(C(=O)NC(Cc2ccccc2)C(=O)N2CCCC2)c1-c1cccc(Br)c1 (stereo not drawn)
- inhibition at 20 µM [6]: 18%
- inhibition at 20 µM [7]: 26%
- inhibition at 20 µM [8]: 9%
- inhibition at 20 µM [9]: 14%

Structure (SMILES): Cc1sc([Se]c2sc(C)c(-c3cccc(F)c3)c2C(=O)NC(CO)C(=O)N2CCCC2)c(C(=O)NC(CO)C(=O)N2CCCC2)c1-c1cccc(F)c1 (stereo not drawn)
- inhibition at 20 µM [6]: 25%
- inhibition at 20 µM [7]: 85%
- inhibition at 20 µM [8]: 61%
- inhibition at 20 µM [9]: 27%
